The record followed here is US6808714B2, “Detection of sarcocystis neurona” (priority 2000, dated 2004).

Molecules are shown by their SMILES.

The assay has as its system S. neurona merozoites. The assay is described as follows: Ionophore A23187-stimulated merozoite release from infected host cell monolayers. Format: cell-based, Sarcocystis neurona. The method, then: A stock solution of calcium ionophore A23187 (Sigma) was prepared in dimethylsulfoxide to a final concentration of 1 mg/ml and stored at −20° C. Infected cell monolayers (see example 1) at 12 days post infection were washed three times with PBS or Hanks Balanced Salts Solution (HBSS), and 10 ml of A23187 (1 μM in HBSS) was added to the washed monolayer and incubated at 37° C. for 40 min. in 5% CO2, 95% air. Free merozoites were collected by centrifugation and washed in PBS as above. Parasites released by this method were examined by density gradient centrifugation, but further separation from host cell debris by density gradient centrifugation was not routinely necessary. For further purification, parasites recovered from the supernatant were isolated from host cell debris on a discontinuous buoyant density gradient using Iodixanol (Optiprep) in PBS or HBSS. Merozoites were suspended gently in 1.0 ml PBS and were layered onto a preformed, three step discontinuous gradient with layers of 1.03, 1.04 and 1.06 g/ml in a 15 ml round bottom centrifuge tube. The gradient was centrifuged at 1000×g for 25 min at 20° C. with the brake off. Fractions containing particulate material at each interface were collected and examined microscopically. The fractions(s) containing significant amounts of merozoites were collected for use.
Lung cells at 60% confluence were seeded at a density of 0.1 merozoites per host cell and parasite growth was monitored microscopically for 30 days. Free parasites were not observed until 10 days post infection. During most of the period of observation, the percentage of extracellular parasites was less than 10%. On day 28, the largest number of free parasites was counted; but the next day the numbers of extracellular parasites was back to less than 10%. Duplicate 75 cm flasks were grown for 12 days in HL cells and treated with HBSS or HBSS with 1 μM A23187. Free parasites were collected by centrifugation and counted with a hemocytometer.

`CNc1ccc2oc(C[C@H]3O[C@@]4(CC[C@H]3C)O[C@H]([C@H](C)C(=O)c3ccc[nH]3)[C@H](C)C[C@H]4C)nc2c1C(=O)O` [A23187]: the “Merozoite release in response to ionophore treatment” value runs as follows: (infected GT, HFF, CHO, BHK and primary EM cells, same conditions) “refractory”; (parasitized BM, BM0617, HL, BT and ED cells) “released merozoites”. For the same compound, under “infected host cells incubated 40 min in 1 μM A23187”, the “Enhancement of collection of parasites free in the culture medium” value is given as 90 fold.
